Measurements: patent publication US4322496A, “Inhibition of lactate oxidase” (Eastman Kodak Company, priority 1980, dated 1982)

What was measured:
Type in all cases: biochemical
[1] = biological target: T1, lactate oxidase activity in partially purified DL-α-glycerophosphate oxidase (Enterococcus casseliflavus, UniProt C9AC47); assay: Lactate/serum blank reaction, solution mode; details: 10 min, 37° C.; for Response to Normal Serum ΔA490: 20 μl normal serum
T1 sequence (C9AC47 1-367): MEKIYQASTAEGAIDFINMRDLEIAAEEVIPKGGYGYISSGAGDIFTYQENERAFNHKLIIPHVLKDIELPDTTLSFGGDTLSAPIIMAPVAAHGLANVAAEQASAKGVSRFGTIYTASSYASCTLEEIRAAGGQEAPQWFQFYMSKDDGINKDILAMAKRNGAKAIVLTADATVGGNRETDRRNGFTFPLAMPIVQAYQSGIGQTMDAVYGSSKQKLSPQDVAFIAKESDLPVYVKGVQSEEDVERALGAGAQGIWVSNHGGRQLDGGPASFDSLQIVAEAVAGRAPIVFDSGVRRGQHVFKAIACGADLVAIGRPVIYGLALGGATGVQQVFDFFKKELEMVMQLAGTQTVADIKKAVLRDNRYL
Description: Solution incubation mixtures contained in a total volume of 1.0 ml: 100 μmoles potassium phosphate buffer, pH 7.0, 0.12 mg 4-aminoantipyrene.HCl, 0.04 mg 1,7-dihydroxynaphthalene, 25 μg horseradish peroxidase (4.6 purpurogallin units), 0.36 units glycerol kinase, 4.6 units partially purified DL-α-glycerophosphate oxidase, and 10 mg Triton X-100. Reactions were initiated by addition of 20 μl of normal serum or 50 μl of 1 mM Dl-lactate, and after ten minutes at 37° C., the absorbance was measured at 490 nm. In each case, a reagent blank (all components except substrate) was subtracted to give the change in absorbance at 490 nm, ΔA490.

[2] = biological target: T2, L-α-Glycerophosphate Oxidase (Enterococcus casseliflavus, UniProt O86963); assay: L-α-glycerophosphate oxidase enzyme assay (absorbance at 430 nm)
T2 construct: L-α-glycerophosphate oxidase was purified from Streptococcus faecium; made in house; host or cells: Streptococcus faecium ATCC 12755 (native organism, not recombinant)
T2 sequence (O86963 1-609): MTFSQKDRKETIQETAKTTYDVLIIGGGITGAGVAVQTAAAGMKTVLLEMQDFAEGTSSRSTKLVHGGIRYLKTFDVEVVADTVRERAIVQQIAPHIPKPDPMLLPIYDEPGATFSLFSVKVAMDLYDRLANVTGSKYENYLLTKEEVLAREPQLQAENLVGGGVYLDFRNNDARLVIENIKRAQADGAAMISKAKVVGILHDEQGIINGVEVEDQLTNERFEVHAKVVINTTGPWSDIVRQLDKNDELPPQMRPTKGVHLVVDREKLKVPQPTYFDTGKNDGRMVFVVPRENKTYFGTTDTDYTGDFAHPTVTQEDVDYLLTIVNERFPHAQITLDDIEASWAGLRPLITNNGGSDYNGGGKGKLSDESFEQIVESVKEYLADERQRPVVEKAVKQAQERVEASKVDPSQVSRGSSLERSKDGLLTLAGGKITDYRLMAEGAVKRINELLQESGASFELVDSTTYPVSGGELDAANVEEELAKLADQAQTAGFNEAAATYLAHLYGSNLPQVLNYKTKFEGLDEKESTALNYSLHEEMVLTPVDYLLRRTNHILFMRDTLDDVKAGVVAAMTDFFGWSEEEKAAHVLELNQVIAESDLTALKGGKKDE
Description: In the examples, oxidative enzymes were prepared from Streptococcus faecium ATCC 12755. L-lactate oxidase was isolated from Streptococcus faecium as a 0-50% ammonium sulfate fraction as described in Esders et al., U.S. Pat. No. 4,166,763 issued Sept. 4, 1979. L-α-glycerophosphate oxidase was purified from Streptococcus faecium as described in Table V, of Research Disclosure Publication No. 16146 published Sept. 10, 1977. Extensively purified L-α-glycerophosphate oxidase (material carried through the whole purification sequence) contained L-α-glycerophosphate:lactate oxidase activity ratios of (1700-3000:1), whereas the partially purified L-α-glycerophosphate oxidase (material isolated as the 50-80% ammonium sulfate fraction) contained L-α-glycerophosphate:lactate oxidase activity ratios of 30-100:1.
In the examples, enzyme assays for L-α-glycerophosphate oxidase were carried out as follows: Assay reaction mixtures contained in a total volume of 1.0 ml: 100 μmoles potassium phosphate buffer, pH 7.0, 66 μg orthodianisidine, 25 μg horseradish peroxidase (4.6 purpuragallin units) and 200 μmoles DL-α-glycerophosphate (at pH 7.0). Compounds to be tested as potential inhibitors were added to the reaction mixtures as indicated in Example 1. Samples were equilibrated at 37° C. and the reactions were initiated by the addition of an aliquot of enzyme. Absorbance at 430 nm was measured in a Beckman 25 spectrophotometer. Initial rates were calculated from the linear portion of the curve.

[3] = biological target: T3, beef meat lactate dehydrogenase (Bos taurus, UniProt P19858); assay: LDH assay reaction mixture (pyruvate/NADH); details: acid 10 mM; pH 7.5
T3 construct: beef meat lactate dehydrogenase; from tissue; host or cells: beef meat (skeletal muscle)
Description: The effect of these acids on LO was evaluated by studying an LO assay reaction mixture having the composition described above. The effect of these acids on LDH was evaluated by studying an LDH assay reaction mixture which contained in a total volume of 1.0 ml: 50 μmoles potassium phosphate buffer (pH 7.5); 1 μmole sodium pyruvate; 0.13 μmole NADH; 0.02 μg beef meat lactate dehydrogenase (320 U/mg) and the acid at a concentration of 10 mM. In the absence of acid, the rate of reaction was assumed to be 100% and the percent inhibition of each reaction was calculated accordingly.

O=C(O)CO [Glycolic Acid]
Response to Normal Serum ΔA490 ([1]; glycolate 1 mM): 0.006 | Response to 50 μM DL-Lactate ΔA490 ([1]; glycolate 1 mM): 0.008 | Response to Normal Serum ΔA490 ([1]; glycolate 2 mM): 0 | Response to 50 μM DL-Lactate ΔA490 ([1]; glycolate 2 mM): 0 | Response to Normal Serum ΔA490 ([1]; glycolate 3 mM): 0 | Response to 50 μM DL-Lactate ΔA490 ([1]; glycolate 3 mM): 0 | inhibition of L-α-GPO (in words) [2]: do not inhibit | inhibition at 5000 µM ([2]; compound at 5 mM, 37° C., pH 7.0, read-out: L-α-Glycerophosphate Oxidase Percent Inhibition): 0% | inhibition at 10000 µM [3]: 11%
